From ChEMBL document CHEMBL4118289, “Developing hybrid molecule therapeutics for diverse enzyme inhibitory action: Active role of coumarin-based structural leads in drug discovery” (Bioorg Med Chem, 2018)

How the values were obtained:
[1] = tested on: Saccharomyces cerevisiae; experiment: Potency index, ratio of acarbose IC50 to compound IC50 for Saccharomyces cerevisiae alpha-glucosidase
[2] = molecular target: Aldo-keto reductase family 1 member B1 (Bos taurus, UniProt P16116); experiment: Inhibition of calf lens ALR2 using D,L-glyceraldehyde as substrate preincubated for 5 mins followed by NADPH addition measured after 10 mins by UV spectrophotometric method
[3] = molecular target: Aldo-keto reductase family 1 member B1 (Bos taurus) (UniProt P16116); experiment: Potency index, ratio of sulindac IC50 to compound IC50 for calf lens ALR2
[4] = species: Bos taurus; experiment: Selectivity index, ratio of IC50 for bovine kidney ALR1 to IC50 for calf lens ALR2
[5] = molecular target: Cholinesterase (Homo sapiens, UniProt P06276); experiment: Inhibition of human plasmatic BuChE using butylthiocholine as substrate preincubated for 5 mins followed by substrate addition measured at 1 min time interval by Ellman's method
[6] = molecular target: T1, Acetylcholinesterase (Homo sapiens, UniProt P22303); experiment: Potency index, ratio of 7-MEOTA IC50 to compound IC50 for human erythrocyte AChE
[7] = molecular target: T1, Acetylcholinesterase
[8] = tested on: Rattus norvegicus; experiment: Antiinflammatory activity in albino rat assessed as inhibition of carrageenan-induced paw edema at 10 umol/kg, sc pretreated for 1 hr followed by carrageenan challenge measured after 4 hrs by plethysmographic method relative to control; assay type: functional
[9] = molecular target: Prostaglandin G/H synthase 1 (Homo sapiens, UniProt P23219); experiment: Inhibition of human COX1 using [14C]arachidonic acid as substrate preincubated for 5 mins followed by substrate addition measured after 2 mins by TLC
[10] = molecular target: Aldo-keto reductase family 1 member B1 (Bos taurus) (UniProt P16116); experiment: Potency index, ratio of valproic acid IC50 to compound IC50 for bovine kidney ALR1
[11] = molecular target: Lipoxygenase (Glycine max) (UniProt Q39829); experiment: Potency index, ratio of NDGA IC50 to compound IC50 for soybean lipoxygenase
[12] = molecular target: Lipoxygenase (Glycine max, UniProt Q39829)
Description: Inhibition of soybean lipoxygenase

[13] = molecular target: Intestinal-type alkaline phosphatase (Bos taurus, UniProt P19111)
Description: Inhibition of calf intestinal alkaline phosphatase using pNPP as substrate preincubated for 10 mins followed by substrate addition measured after 30 mins

[14] = Non-competitive inhibition of baker's yeast alpha-glucosidase using pNPG as substrate preincubated for 10 mins followed by substrate addition measured after 30 mins by Lineweaver-Burk plot analysis; set-up: species or system Saccharomyces cerevisiae
[15] = species: Homo sapiens; experiment: Selectivity ratio of IC50 for human COX1 to IC50 for human COX2
[16] = molecular target: Cholinesterase (Equus caballus, UniProt P81908); experiment: Inhibition of equine serum BChE using butyrylthiocholine iodide as substrate preincubated for 15 mins followed by substrate addition by Ellman's method
[17] = molecular target: Cholinesterase (Equus caballus) (UniProt P81908); experiment: Potency index, ratio of galanthamine IC50 to compound IC50 for equine serum BChE
[18] = molecular target: T2, Tyrosinase (Agaricus bisporus, UniProt O42713); experiment: Inhibition of mushroom tyrosinase using L-DOPA as substrate preincubated for 10 mins followed by substrate addition measured after 20 mins
T2 sequence (O42713 whole entry): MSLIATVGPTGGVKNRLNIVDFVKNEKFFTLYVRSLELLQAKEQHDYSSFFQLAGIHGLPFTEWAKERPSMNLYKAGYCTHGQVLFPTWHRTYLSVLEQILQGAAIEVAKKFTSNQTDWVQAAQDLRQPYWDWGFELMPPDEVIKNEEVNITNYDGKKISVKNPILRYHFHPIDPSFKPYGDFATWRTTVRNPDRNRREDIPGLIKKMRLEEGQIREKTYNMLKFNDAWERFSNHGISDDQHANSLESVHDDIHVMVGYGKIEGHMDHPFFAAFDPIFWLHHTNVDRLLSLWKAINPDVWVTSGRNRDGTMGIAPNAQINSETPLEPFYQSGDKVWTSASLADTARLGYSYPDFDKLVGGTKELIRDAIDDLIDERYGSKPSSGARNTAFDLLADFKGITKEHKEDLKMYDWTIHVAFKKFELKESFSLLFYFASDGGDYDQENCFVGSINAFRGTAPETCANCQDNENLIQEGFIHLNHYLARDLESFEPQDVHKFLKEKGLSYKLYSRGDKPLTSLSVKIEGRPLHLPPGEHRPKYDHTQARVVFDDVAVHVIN

[19] = tested on: Rattus norvegicus; experiment: Antiinflammatory activity in Wistar rat assessed as inhibition of formalin-induced paw oedema at 20 mg/kg, po equiv of indomethacin pretreated for 1 hr followed by formalin addition measured up to 6 hrs post dose by plethysmographic method relative to control; assay type: functional

Sequence of Prostaglandin G/H synthase 1 (P23219 whole entry): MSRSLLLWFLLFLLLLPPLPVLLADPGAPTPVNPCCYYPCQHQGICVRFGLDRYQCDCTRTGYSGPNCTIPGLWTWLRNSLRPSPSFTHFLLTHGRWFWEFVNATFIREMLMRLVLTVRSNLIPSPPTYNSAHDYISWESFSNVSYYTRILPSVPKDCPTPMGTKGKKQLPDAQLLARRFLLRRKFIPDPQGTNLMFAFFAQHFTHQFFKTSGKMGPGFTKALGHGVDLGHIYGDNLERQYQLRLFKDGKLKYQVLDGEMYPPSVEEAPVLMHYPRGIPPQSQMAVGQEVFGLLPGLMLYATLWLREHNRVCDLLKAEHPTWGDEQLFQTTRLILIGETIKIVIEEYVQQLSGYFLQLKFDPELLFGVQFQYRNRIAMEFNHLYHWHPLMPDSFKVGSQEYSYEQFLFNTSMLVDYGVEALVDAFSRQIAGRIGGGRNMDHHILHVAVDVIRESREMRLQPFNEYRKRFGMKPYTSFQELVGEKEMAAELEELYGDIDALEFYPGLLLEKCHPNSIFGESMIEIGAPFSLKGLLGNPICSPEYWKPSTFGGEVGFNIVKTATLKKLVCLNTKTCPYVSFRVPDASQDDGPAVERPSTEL
T1 sequence (P22303 whole entry): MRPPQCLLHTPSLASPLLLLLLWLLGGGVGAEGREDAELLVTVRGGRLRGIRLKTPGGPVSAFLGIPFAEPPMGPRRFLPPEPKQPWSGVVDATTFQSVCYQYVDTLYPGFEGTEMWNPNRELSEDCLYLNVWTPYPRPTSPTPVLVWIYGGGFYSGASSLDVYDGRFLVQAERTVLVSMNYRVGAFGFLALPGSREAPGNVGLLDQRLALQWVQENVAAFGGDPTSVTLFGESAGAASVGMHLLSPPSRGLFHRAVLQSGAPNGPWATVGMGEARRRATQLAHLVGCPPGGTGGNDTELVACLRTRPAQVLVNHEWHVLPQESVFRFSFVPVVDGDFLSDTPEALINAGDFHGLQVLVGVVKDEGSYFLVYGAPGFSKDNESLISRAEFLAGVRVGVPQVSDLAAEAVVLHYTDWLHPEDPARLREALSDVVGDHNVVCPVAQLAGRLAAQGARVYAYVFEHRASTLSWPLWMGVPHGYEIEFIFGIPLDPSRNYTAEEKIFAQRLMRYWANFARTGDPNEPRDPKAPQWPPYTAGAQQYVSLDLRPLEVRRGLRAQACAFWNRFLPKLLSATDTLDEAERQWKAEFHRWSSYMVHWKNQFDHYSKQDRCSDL
Sequence of Cholinesterase (Equus caballus) (P81908 whole entry): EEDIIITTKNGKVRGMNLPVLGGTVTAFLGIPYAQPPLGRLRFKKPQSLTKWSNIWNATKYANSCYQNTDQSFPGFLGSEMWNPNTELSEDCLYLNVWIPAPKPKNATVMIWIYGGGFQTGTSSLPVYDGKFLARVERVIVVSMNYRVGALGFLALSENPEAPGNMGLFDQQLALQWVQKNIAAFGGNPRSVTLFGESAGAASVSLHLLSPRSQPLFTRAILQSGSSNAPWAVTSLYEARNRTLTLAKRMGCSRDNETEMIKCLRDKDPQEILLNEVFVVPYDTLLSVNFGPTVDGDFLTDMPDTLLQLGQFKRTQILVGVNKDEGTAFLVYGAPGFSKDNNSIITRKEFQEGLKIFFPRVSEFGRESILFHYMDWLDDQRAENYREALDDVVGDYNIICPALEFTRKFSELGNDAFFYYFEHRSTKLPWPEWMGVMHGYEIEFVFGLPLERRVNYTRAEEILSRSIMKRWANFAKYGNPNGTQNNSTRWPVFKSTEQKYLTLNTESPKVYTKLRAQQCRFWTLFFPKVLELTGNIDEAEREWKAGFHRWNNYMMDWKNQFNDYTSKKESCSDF
Sequence of Cholinesterase (Equus caballus, UniProt P81908) (P81908 whole entry): as above
Sequence of Cholinesterase (Homo sapiens, UniProt P06276) (P06276 whole entry): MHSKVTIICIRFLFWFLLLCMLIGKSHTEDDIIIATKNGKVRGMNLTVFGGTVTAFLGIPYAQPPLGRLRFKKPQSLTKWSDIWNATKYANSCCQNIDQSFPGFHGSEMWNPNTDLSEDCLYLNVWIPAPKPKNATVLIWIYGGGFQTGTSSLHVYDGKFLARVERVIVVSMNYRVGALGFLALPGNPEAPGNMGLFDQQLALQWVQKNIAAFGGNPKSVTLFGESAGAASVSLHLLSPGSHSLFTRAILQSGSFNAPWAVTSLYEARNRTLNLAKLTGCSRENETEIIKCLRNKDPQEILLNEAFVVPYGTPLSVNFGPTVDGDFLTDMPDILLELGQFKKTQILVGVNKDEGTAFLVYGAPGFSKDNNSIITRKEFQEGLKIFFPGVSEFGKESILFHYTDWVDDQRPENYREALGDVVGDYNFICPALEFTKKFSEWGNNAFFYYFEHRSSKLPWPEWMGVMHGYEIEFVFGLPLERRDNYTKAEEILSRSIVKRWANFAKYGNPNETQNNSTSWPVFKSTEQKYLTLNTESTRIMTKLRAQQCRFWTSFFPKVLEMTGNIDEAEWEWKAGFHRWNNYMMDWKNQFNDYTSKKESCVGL
Sequence of Intestinal-type alkaline phosphatase (P19111 whole entry): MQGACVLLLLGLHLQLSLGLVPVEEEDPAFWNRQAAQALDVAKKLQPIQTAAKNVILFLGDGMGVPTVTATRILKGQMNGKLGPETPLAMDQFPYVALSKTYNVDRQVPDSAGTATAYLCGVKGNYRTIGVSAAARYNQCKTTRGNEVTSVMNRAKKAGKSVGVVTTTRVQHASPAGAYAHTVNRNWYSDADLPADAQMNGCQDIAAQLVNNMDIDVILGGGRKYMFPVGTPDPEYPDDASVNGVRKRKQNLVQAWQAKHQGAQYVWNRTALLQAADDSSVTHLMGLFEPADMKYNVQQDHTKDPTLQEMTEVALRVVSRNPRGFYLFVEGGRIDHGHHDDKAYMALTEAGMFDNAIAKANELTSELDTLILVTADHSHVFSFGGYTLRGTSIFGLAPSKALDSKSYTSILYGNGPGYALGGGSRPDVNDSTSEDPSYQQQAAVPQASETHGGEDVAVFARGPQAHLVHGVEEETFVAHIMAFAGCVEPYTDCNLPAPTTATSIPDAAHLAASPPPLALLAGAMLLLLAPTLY

O=C(Cn1c(Cc2ccc(Br)cc2)nc2ccccc2c1=O)NNC(=O)c1cc2ccccc2oc1=O
Ratio IC50 [1]: 4 to 5

C/C(=N\Nc1nc(-c2cc3ccccc3oc2=O)cs1)c1ccc(Br)cc1
IC50 [2]: 110 nM | Ratio IC50 [3]: 3 | Ratio IC50 [4]: 9.17

O=C(Cc1cc(=O)oc2cc(O)ccc12)NCCCCCCCNC(=O)c1cccc2c(=O)c3ccccc3[nH]c12
IC50 [5]: 32.5 µM | Ratio IC50 [6]: 3 | IC50 [7]: 5.85 µM

C/C(=N\N=C1\CCC(=O)N1C)c1cc2ccccc2oc1=O
inhibition in vivo at 10 µmol/kg [8]: 71.9% | IC50 [9]: 56 to 167 µM

O=c1oc2ccccc2cc1-c1nn(CNc2ccccc2Cl)c(=S)o1
IC50 [2]: 310 nM

C/C(=N\Nc1nc(-c2cc3ccccc3oc2=O)cs1)c1ccc(Cl)cc1N
Ratio IC50 [10]: 125

O=c1oc2ccccc2c(O)c1/C=C/n1cnc2c(N3CCCCC3)ncnc21
Ratio IC50 [11]: 4 | IC50 [12]: 6.25 µM

CCN1C(C)=CC/C1=N/N=C(\C)c1cc2ccccc2oc1=O
inhibition in vivo at 10 µmol/kg [8]: 88.9% | IC50 [9]: 56 to 167 µM

O=c1oc2ccccc2c(O)c1/C=C/n1cnc2c(NCc3ccccc3)ncnc21
IC50 [12]: 20 µM

O=C(Cn1c(Cc2ccc(Cl)c(Cl)c2)nc2ccccc2c1=O)NNC(=O)c1cc2ccccc2oc1=O
Ratio IC50 [1]: 4 to 5

Cc1ccc(-n2c(-c3cc4ccccc4oc3=O)cs/c2=N/NC(=O)c2cc3ccccc3oc2=O)c(C)c1
IC50 [13]: 1380 nM

CCCCNCn1nc(-c2cc3ccccc3oc2=O)oc1=S
Ratio IC50 [10]: 17

O=c1oc2ccccc2cc1-c1nn(CN2CCOCC2)c(=S)o1
IC50 [2]: 340 nM

O=C(N/N=C/c1cc(Cl)cc(Cl)c1O)c1nc(-c2cc3ccccc3oc2=O)cs1
Ki [14]: 6.86 µM

C/C(=N\N=C1\CC(C)C(=O)N1C)c1cc2ccccc2oc1=O (configuration not stated)
inhibition in vivo at 10 µmol/kg [8]: 92.2% | IC50 [9]: 56 to 167 µM | Ratio IC50 [15]: 223

CCOC(=O)C1=C(C)N(CC)/C(=N\N=C(/C)c2cc3ccccc3oc2=O)C1
inhibition in vivo at 10 µmol/kg [8]: 94.5% | IC50 [9]: 56 to 167 µM

O=C(Nc1ccc(F)cc1)Nc1nc(-c2cc3cc([N+](=O)[O-])ccc3oc2=O)cs1
IC50 [16]: 4.93 µM | Ratio IC50 [17]: 4

COc1cc(C2CC(c3cc4ccccc4oc3=O)=NN2c2nc(-c3ccc(Br)cc3)cs2)ccc1OCc1ccccc1 (configuration not stated)
IC50 [18]: 4.58 nM

O=c1oc2cc(Cl)ccc2cc1-c1nc2ccccc2[nH]1
inhibition in vivo at 20 mg/kg [19]: 47%

CC1=CC/C(=N/N=C(\C)c2cc3ccccc3oc2=O)N1C
inhibition in vivo at 10 µmol/kg [8]: 90% | IC50 [9]: 56 to 167 µM
